In BindingDB's records for patent US9745282 (Merck Sharp & Dohme Corp, 2017):

target: T1, Cytochrome P450 11B1, mitochondrial (Homo sapiens, UniProt P15538)
T1 sequence (P15538 whole entry): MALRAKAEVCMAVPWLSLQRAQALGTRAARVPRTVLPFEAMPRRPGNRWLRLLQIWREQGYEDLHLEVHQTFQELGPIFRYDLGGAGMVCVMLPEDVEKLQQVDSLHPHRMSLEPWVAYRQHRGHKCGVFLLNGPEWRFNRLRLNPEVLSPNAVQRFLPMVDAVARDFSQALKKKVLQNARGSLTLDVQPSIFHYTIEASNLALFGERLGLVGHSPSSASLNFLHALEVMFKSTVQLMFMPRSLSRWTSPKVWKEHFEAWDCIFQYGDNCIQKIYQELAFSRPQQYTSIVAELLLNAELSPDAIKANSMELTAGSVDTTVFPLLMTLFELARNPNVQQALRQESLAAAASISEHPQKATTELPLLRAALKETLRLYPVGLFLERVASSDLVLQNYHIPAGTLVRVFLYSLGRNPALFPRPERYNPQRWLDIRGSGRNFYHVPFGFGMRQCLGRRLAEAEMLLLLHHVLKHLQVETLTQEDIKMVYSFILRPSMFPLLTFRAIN

Point of comparison: `CC(=O)N1CCc2cc(-c3cnccc3C)cc(F)c21` [US9745282, 15], IC50 68 nM. Against it:
- O=C(N1CCc2cc(-c3cncc(F)c3)cc(Cl)c21)C(F)(F)F [US9745282, 32] — 7.7-fold higher, 525 nM
- CC(C)C(=O)N1CCc2cc(-c3cncc4ccccc34)ccc21 [US9745282, 30] — 55-fold higher, 3720 nM
- O=C(N1CCc2cc(-c3cncc(F)c3)cc(F)c21)C(F)(F)F [US9745282, 33] — 21-fold higher, 1410 nM
- CC(=O)N1CCc2cc(-c3cncc(F)c3C)cc(Cl)c21 [US9745282, 8] — 4-fold higher, 270 nM
